Measurements: patent US20160375031A1, “ALPHA-OXOACYL AMINO-CAPROLACTAM DERIVATIVE” (Seikagaku Corporation, priority 2013, published 2016)
Values joined by “and” are separate entries in the source; they are usually repeats but may differ in a detail not shown here. Identical values can stand only once. Like-named read-outs stand apart in the source and are kept apart here.

How the values were obtained:
Cathepsin K [1] = target: T1, Cathepsin K (Oryctolagus cuniculus, UniProt P43236)
T1 sequence (P43236 115-329): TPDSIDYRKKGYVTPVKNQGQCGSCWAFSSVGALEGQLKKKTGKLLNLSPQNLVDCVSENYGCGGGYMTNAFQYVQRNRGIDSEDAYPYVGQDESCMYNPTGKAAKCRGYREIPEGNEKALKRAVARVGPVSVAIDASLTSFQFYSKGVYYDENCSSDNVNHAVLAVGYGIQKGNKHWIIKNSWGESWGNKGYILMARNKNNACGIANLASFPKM
Description: (§1) Specifically, the decomposition of 20 μM Z-Gly-Pro-Arg-MCA by cathepsin K was measured in 100 mM potassium sodium phosphate, 1 mM EDTA, 8 mM Cysteine, pH 6.0. The reaction was performed at 37° C. for 30 minutes and then quenched by the addition of 2×10^−5 M of calpeptin. After the reaction was quenched, the intensity of fluorescence was measured at an excitation wavelength of 355 nm and a measurement wavelength of 460 nm.

Cathepsin K [2] = target: T1, Cathepsin K; assay: Measurement of cathepsin K inhibitory activity (fluorescent substrate Z-Gly-Pro-Arg-MCA); settings: for CYP/CatK: ratio of IC50 for CYP3A4 inhibitory activity (MBI) to IC50 for cathepsin K inhibitory activity
Description: as §1

[3] = system: male mice fed with low-calcium diet; assay: Measurement of bone resorption inhibitory activity (decrease in serum calcium in low-calcium diet mice); type: in vivo; settings: low-calcium diet 7 days, 100 mg/kg oral, 4 hours after administration, vs control group
Description: The measurement was performed by the same method as described in JP 2000-204071 A (Patent Literature 1). Specifically, male mice (23 to 25 g weight, 8 mice per group) were fed with low-calcium diet (0.1% calcium diet) for 7 days. […] The rate (%) of decrease in serum calcium was determined by comparison with the control group.
It should be noted that the data of the rate (%) of decrease in serum calcium as to comparative compounds 1 to 15 are the values shown in JP 2000-204071 A (Patent Literature 1).

CYP3A4 [4] = target: T2, CYP3A4 (Homo sapiens, UniProt P08684); assay: biochemical
Description: (§2) A reaction mixture was prepared by mixing the compound of the present invention with midazolam as a typical substrate for CYP3A4 (see Food and Drug Administration (FDA) Guidance for Industry Drug Interaction Studies—Study Design, Data Analysis, Implications for Dosing, and Labeling Recommendations. FDA web site [online], www.fda.gov/downloads/drugs/guidancecomplianceregulatoryinformation/guidances/ucm292362.pdf), coenzyme NADPH-generating system, human hepatic microsomes, and a phosphate buffer. The reaction mixture was incubated at 37° C. for 10 minutes.
(§3) The coenzyme NADPH-generating system solution was prepared by mixing the materials shown in Table 1: the 13 mmol/L β-NADP^+ solution, the 33 mmol/L G-6-P solution, the solution of 10 U/mL G6PDH (Y) (manufactured by Oriental Yeast Co., Ltd.), and the 33 mmol/L MgCl2 solution in a ratio of 1:1:0.4:1 (v:v:v:v).
(§4) After the incubation, the reaction was quenched by the addition of an acetonitrile solution to the reaction mixture. The amount of 1′-hydroxymidazolam produced (the metabolite produced from midazolam by CYP3A4) was measured in the quenched sample with a high-performance liquid chromatography tandem mass spectrometer (LC-MS/MS). Each IC50 value for DI (direct inhibition) was determined from the amount of the produced 1′-hydroxymidazolam and the final concentration of the compound of the present invention or the comparative compound in the reaction mixture.
(§5) MBI (mechanism based inhibition) was evaluated as follows. After the reaction mixture not containing midazolam (but containing the compound of the present invention or the comparative compound, the coenzyme NADPH-generating system, the human hepatic microsomes, and the phosphate buffer) was pre-incubated at 37° C. for 30 minutes, midazolam was added to the reaction mixture. The reaction mixture was then incubated at 37° C. for 10 minutes. Subsequently, the reaction was quenched by the addition of an acetonitrile solution to the reaction mixture. The amount of 1′-hydroxymidazolam produced was measured in the quenched sample with an LC-MS/MS. As in the case of DI, each IC50 value for MBI was determined from the amount of the produced 1′-hydroxymidazolam and the final concentration of the compound of the present invention or the comparative compound in the reaction mixture.

[5] = system: male mice fed with low-calcium diet; settings: values shown in JP 2000-204071 A (Patent Literature 1); cited from earlier work
CYP3A4 [6] = target: T2, CYP3A4
Description: as §2, §3, §4, §5

[7] = read-out: CatK Inhibitory IC50, 20 μM Z-Gly-Pro-Arg-MCA, pH 6.0, 37° C., 30 minutes
[8] = read-out: CYP3A4 Inhibitory IC50 DI, DI (direct inhibition), human hepatic microsomes, midazolam, 37° C. 10 minutes
[9] = read-out: CYP3A4 Inhibitory IC50 MBI, MBI (mechanism based inhibition), 30 minutes pre-incubation with NADPH-generating system before midazolam

T2 sequence (P08684 whole entry): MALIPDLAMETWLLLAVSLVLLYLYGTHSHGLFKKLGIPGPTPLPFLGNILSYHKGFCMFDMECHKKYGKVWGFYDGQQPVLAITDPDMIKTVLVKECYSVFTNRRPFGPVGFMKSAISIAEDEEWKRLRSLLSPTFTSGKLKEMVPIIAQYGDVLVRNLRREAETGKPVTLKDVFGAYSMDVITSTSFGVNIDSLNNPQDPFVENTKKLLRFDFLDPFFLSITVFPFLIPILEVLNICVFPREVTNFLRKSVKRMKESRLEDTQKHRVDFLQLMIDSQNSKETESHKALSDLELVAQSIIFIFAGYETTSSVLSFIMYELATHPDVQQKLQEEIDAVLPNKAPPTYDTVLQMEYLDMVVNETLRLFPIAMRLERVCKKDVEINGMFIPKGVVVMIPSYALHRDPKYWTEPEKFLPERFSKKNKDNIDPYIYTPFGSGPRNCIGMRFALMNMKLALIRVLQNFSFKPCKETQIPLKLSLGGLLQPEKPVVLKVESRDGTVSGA

| CYP/CatK (Cathepsin K [1]) | IC50 (Cathepsin K [2]) | IC50 (CYP3A4 [4]) | Compound | Rate of Decrease in Serum Ca [3] | Rate of Decrease in Serum Ca [5] | CYP/CatK (Cathepsin K [2]) | IC50 (Cathepsin K [2]; [7]) | IC50 (CYP3A4 [6]; [8]) | IC50 (CYP3A4 [6]; [9]) |
| --- | --- | --- | --- | --- | --- | --- | --- | --- | --- |
| 44231 | 0.00052 µM | 55.6 µM and 23 µM | COC(=O)N1CCC(OC(=O)NC2(C(=O)N[C@H](C(=O)C(=O)N[C@H]3CCCCNC3=O)C(C)C)CCCCC2)CC1 [Compound 2, [1-[[[(1S)-3-[[(3S)-hexahydro-2-oxo-1H-azepin-3-yl]amino]-1-(1-methylethyl)-2,3-dioxopropyl]amino]carbonyl]cyclohexyl]carbamic acid 1-(methoxycarbonyl)-4-piperidinyl ester] | 5.6% | – | – | – | – | – |
| – | – | – | [1-[[[(1S)-3-[[(3S)-hexahydro-2-oxo-1H-azepin-3-yl]amino]-1-(1-methylethyl)-2,3-dioxopropyl]amino]carbonyl]cyclohexyl]carbamic acid 1-(methoxycarbonyl)-4-piperidinyl ester [Compound 2] | – | 4.71% | 122 | 0.013 µM | 9.31 µM | 1.53 µM |
| – | – | – | [1-[[[(1S)-3-[[(3S)-hexahydro-2-oxo-1H-azepin-3-yl]amino]-1-(1-methylethyl)-2,3-dioxopropyl]amino]carbonyl]cyclohexyl]carbamic acid tetrahydro-2H-pyran-4-yl ester [Compound 1] | – | 5.39% | 207 | 0.016 µM | 11.7 µM | 3.36 µM |
| 141739 | 0.00056 µM | > 100 µM and 80 µM | CC(C)[C@H](NC(=O)C1(NC(=O)OC2CCOCC2)CCCCC1)C(=O)C(=O)N[C@H]1CCCCNC1=O [Compound 1, [1-[[[(1S)-3-[[(3S)-hexahydro-2-oxo-1H-azepin-3-yl]amino]-1-(1-methylethyl)-2,3-dioxopropyl]amino]carbonyl]cyclohexyl]carbamic acid tetrahydro-2H-pyran-4-yl ester] | 6.2% | – | – | – | – | – |
